assay: Deliquescence Test (Experimental Example 3, salts of (S)-3-aminoquinuclidine); type: physicochemical; conditions: about 0.5 g allowed to stand for 1 hour, 24 to 26° C., humidity of 75 to 78%, visual evaluation
Protocol: The acid addition salts (about 0.5 g) of (S)-3-aminoquinuclidine obtained in Examples 14 to 19, and Comparative Examples 18 to 19 were allowed to stand for 1 hour, under the conditions of 24 to 26° C., and a humidity of 75 to 78%, and a deliquescence was observed by a visual evaluation.

| Structure (SMILES) | Deliquescence |
| --- | --- |
| N[C@@H]1CN2CCC1CC2.O=[N+]([O-])O.O=[N+]([O-])O [Comparative Example 18, (S)-3-aminoquinuclidine.dinitrate] | Gradually |
| CC(=O)O.CC(=O)O.N[C@@H]1CN2CCC1CC2 [Comparative Example 19, (S)-3-aminoquinuclidine.diacetate] | Immediately |
| N[C@@H]1CN2CCC1CC2.N[C@@H]1CN2CCC1CC2.O=P(O)(O)O.O=P(O)(O)O.O=P(O)(O)O [Example 14, (S)-3-aminoquinuclidine.sesquiphosphate] | Not deliquesce |
| N[C@@H]1CN2CCC1CC2.O=S(=O)(O)O [Example 15, (S)-3-aminoquinuclidine.monosulfate] | Not deliquesce |
| N[C@@H]1CN2CCC1CC2.O=C(O)/C=C/C(=O)O [Example 16, (S)-3-aminoquinuclidine.monofumarate] | Not deliquesce |
| N[C@@H]1CN2CCC1CC2.O=C(O)c1ccc(C(=O)O)cc1 [Example 17, (S)-3-aminoquinuclidine.monoterephthalate] | Not deliquesce |
| N[C@@H]1CN2CCC1CC2.O=C(O)C(=O)O [Example 18, (S)-3-aminoquinuclidine.monooxalate] | Not deliquesce |
| Cc1ccc(S(=O)(=O)O)cc1.N[C@@H]1CN2CCC1CC2 [Example 19, (S)-3-aminoquinuclidine.mono-p-toluenesulfonate] | Not deliquesce |
| Cl.Cl.N[C@@H]1CN2CCC1CC2 [Referential Example 4, (S)-3-aminoquinuclidine.dihydrochloride] | Immediately |

assay: Deliquescence Test (Experimental Example 2, salts of (R)-3-aminoquinuclidine); type: physicochemical; conditions: about 0.5 g allowed to stand for 1 hour, 24 to 25° C., humidity of 74 to 76%, visual evaluation
Protocol: The acid addition salts (about 0.5 g) of (R)-3-aminoquinuclidine obtained in Examples 7 to 13, Referential Example 2, and Comparative Examples 10 to 17 were allowed to stand for 1 hour, under the conditions of 24 to 25° C. and a humidity of 74 to 76%, and a deliquescence was observed by a visual evaluation.

| Structure (SMILES) | Deliquescence |
| --- | --- |
| Br.Br.N[C@H]1CN2CCC1CC2 [Comparative Example 10, (R)-3-aminoquinuclidine-dihydrobromide] | Gradually |
| N[C@H]1CN2CCC1CC2.O=[N+]([O-])O.O=[N+]([O-])O [Comparative Example 11, (R)-3-aminoquinuclidine.dinitrate] | Gradually |
| CC(=O)O.CC(=O)O.N[C@H]1CN2CCC1CC2 [Comparative Example 12, (R)-3-aminoquinuclidine.diacetate] | Immediately |
| CCC(=O)O.N[C@H]1CN2CCC1CC2 [Comparative Example 13, (R)-3-aminoquinuclidine.monopropionate] | Immediately |
| N[C@H]1CN2CCC1CC2.O=C(O)c1ccccc1.O=C(O)c1ccccc1 [Comparative Example 14, (R)-3-aminoquinuclidine.dibenzoate] | Immediately |
| N[C@H]1CN2CCC1CC2.O=C(O)/C=C\C(=O)O [Comparative Example 15, (R)-3-aminoquinuclidine.monomaleate] | Gradually |
| N[C@H]1CN2CCC1CC2.N[C@H]1CN2CCC1CC2.N[C@H]1CN2CCC1CC2.O=C(O)CC(O)(CC(=O)O)C(=O)O.O=C(O)CC(O)(CC(=O)O)C(=O)O [Comparative Example 16, (R)-3-aminoquinuclidine.2/3citrate] | Immediately |
| CS(=O)(=O)O.N[C@H]1CN2CCC1CC2 [Comparative Example 17, (R)-3-aminoquinuclidine.monomesylate] | Gradually |
| N[C@H]1CN2CCC1CC2.N[C@H]1CN2CCC1CC2.O=P(O)(O)O.O=P(O)(O)O.O=P(O)(O)O [Example 7, (R)-3-aminoquinuclidine.sesquiphosphate] | Not deliquesce |
| N[C@H]1CN2CCC1CC2.O=S(=O)(O)O [Example 8, (R)-3-aminoquinuclidine.monosulfate] | Not deliquesce |
| N[C@H]1CN2CCC1CC2.O=C(O)/C=C/C(=O)O [Example 9, (R)-3-aminoquinuclidine.monofumarate] | Not deliquesce |
| N[C@H]1CN2CCC1CC2.O=C(O)c1ccc(C(=O)O)cc1 [Example 10, (R)-3-aminoquinuclidine.monoterephthalate] | Not deliquesce |
| N[C@H]1CN2CCC1CC2.O=C(O)C(=O)O [Example 11, (R)-3-aminoquinuclidine.monooxalate] | Not deliquesce |
| Cc1ccc(S(=O)(=O)O)cc1.N[C@H]1CN2CCC1CC2 [Example 12, (R)-3-aminoquinuclidine.mono-p-toluenesulfonate] | Not deliquesce |
| CC1(C)C2CCC1(CS(=O)(=O)O)C(=O)C2.N[C@H]1CN2CCC1CC2 [Example 13, (R)-3-aminoquinuclidine.mono-(−)-10-camphorsulfonate] | Not deliquesce |
| Cl.Cl.N[C@H]1CN2CCC1CC2 [Referential Example 2, (R)-3-aminoquinuclidine.dihydrochloride] | Immediately |

assay: Deliquescence Test (Experimental Example 1, salts of racemic 3-aminoquinuclidine); type: physicochemical; conditions: about 0.5 g allowed to stand for 1 hour, 25 to 27° C., humidity of 76 to 82%, visual evaluation
Protocol: racemic 3-aminoquinuclidine.dihydrochloride of reagent, and the acid addition salts (about 0.5 g) of racemic 3-aminoquinuclidine obtained in Examples 1 to 6 and Comparative Examples 1 to 9 were allowed to stand for 1 hour, under the condition of 25 to 27° C., and a humidity of 76 to 82%, and a deliquescence was observed by a visual evaluation.

| Structure (SMILES) | Deliquescence |
| --- | --- |
| Br.Br.NC1CN2CCC1CC2 (racemic) [Comparative Example 1, racemic 3-aminoquinuclidine-dihydrobromide] | Gradually |
| NC1CN2CCC1CC2.O=S(=O)(O)O (racemic) [Comparative Example 2, racemic 3-aminoquinuclidine.monosulfate] | Gradually |
| NC1CN2CCC1CC2.O=[N+]([O-])O.O=[N+]([O-])O (racemic) [Comparative Example 3, racemic 3-aminoquinuclidine.dinitrate] | Gradually |
| CC(=O)O.CC(=O)O.NC1CN2CCC1CC2 (racemic) [Comparative Example 4, racemic 3-aminoquinuclidine.diacetate] | Immediately |
| CCC(=O)O.NC1CN2CCC1CC2 (racemic) [Comparative Example 5, racemic 3-aminoquinuclidine.monopropionate] | Immediately |
| NC1CN2CCC1CC2.O=C(O)c1ccccc1.O=C(O)c1ccccc1 (racemic) [Comparative Example 6, racemic 3-aminoquinuclidine.dibenzoate] | Gradually |
| NC1CN2CCC1CC2.O=C(O)/C=C\C(=O)O (racemic) [Comparative Example 7, racemic 3-aminoquinuclidine.monomaleate] | Gradually |
| NC1CN2CCC1CC2.NC1CN2CCC1CC2.NC1CN2CCC1CC2.O=C(O)CC(O)(CC(=O)O)C(=O)O.O=C(O)CC(O)(CC(=O)O)C(=O)O (racemic) [Comparative Example 8, racemic 3-aminoquinuclidine.2/3 citrate] | Immediately |
| CS(=O)(=O)O.NC1CN2CCC1CC2 (racemic) [Comparative Example 9, racemic 3-aminoquinuclidine.monomesylate] | Gradually |
| NC1CN2CCC1CC2 (racemic) [Example 1, racemic 3-aminoquinuclidine.sesquiphosphate] | Not deliquesce |
| NC1CN2CCC1CC2.O=C(O)/C=C/C(=O)O (racemic) [Example 2, racemic 3-aminoquinuclidine.monofumarate] | Not deliquesce |
| NC1CN2CCC1CC2.O=C(O)c1ccc(C(=O)O)cc1 (racemic) [Example 3, racemic 3-aminoquinuclidine.monoterephthalate] | Not deliquesce |
| NC1CN2CCC1CC2.O=C(O)C(=O)O (racemic) [Example 4, racemic 3-aminoquinuclidine.monooxalate] | Not deliquesce |
| Cc1ccc(S(=O)(=O)O)cc1.NC1CN2CCC1CC2 (racemic) [Example 5, racemic 3-aminoquinuclidine.mono-p-toluenesulfonate] | Not deliquesce |
| CC1(C)C2CCC1(CS(=O)(=O)O)C(=O)C2.NC1CN2CCC1CC2 (racemic) [Example 6, racemic 3-aminoquinuclidine.mono-(±)-10-camphorsulfonate] | Not deliquesce |
| Cl.Cl.NC1CN2CCC1CC2 (racemic) [Reagent, racemic 3-aminoquinuclidine.dihydrochloride] | Immediately |
